Experimental data reported in patent publication US9945845B2, “Methods of screening using amphibians” (priority 2009, dated 2018).
Entries after “also recorded” stand apart in the source; their conditions may differ. Counter-ions that a name gives are not always drawn. Like-named read-outs stand apart in the source and are kept apart here.

Legend:
LEC [1] = assay: LEC cell proliferation assay; assay type: cell-based, human; conditions: for activity at 10 µM: Homo sapiens, 48 h
Experimental: (§1) Human umbilical vein endothelial cells (HUVEC) were purchased from PromoCell. […] HUVEC and LEC were cultured in endothelial basal medium EBM (Cambrex) supplemented with 20% fetal bovine serum (Invitrogen), antibiotic-antimycotics (100 U/ml penicillin, 100 μg/ml streptomycin, 250 ng/ml amphotericin; Invitrogen). 2 mM L-glutamine (Invitrogen), 10 μg/ml hydrocortisone (Fluka) and 25 μg/ml N^6,2′-O-dibutyryladenosine 3′,5′-cyclic monophosphate sodium salt (Fluka) for up to eleven passages.
(§2) The intensity of fluorescence, which is proportional to the number of viable cells, was measured using a microplate reader (SpectraMax Gemini EM; Molecular Devices). The chemical treatments were performed in five replicates.
(§3) The cell proliferation assays were performed by treating the endothelial cell cultures with compounds at a screening dose of 10 μM in 0.1% DMSO for 48 hours (FIG. 6a; Table 10).

HUVEC [2] = assay: HUVEC cell proliferation assay; assay type: cell-based, human; conditions: for activity at 10 µM: Homo sapiens, HUVEC, 48 h
Experimental: as §1, §2, §3

LEC [3] = assay: cells; assay type: cell-based, human; conditions: for activity at 1 µM: Homo sapiens
Experimental: as §1
(§4) The effect of the selected chemicals on the formation of tube-like structures was performed as follows. […] After overnight incubation at 37° C. the treated cell cultures were fixed with 4% paraformaldehyde. Each chemical treatment was performed in triplicate and the experiment was repeated at least three times. Three representative images of hotspots with tube-like structures were taken per well using a digital camera (AxioCam MRm, Carl Zeiss) mounted on an inverted microscope (Axiovert 200M, Carl Zeiss). The length of the tube-like structures was measured using the IPLab software (BD Biosciences). For each experimental condition, results are represented as average total tube length (μm) per area (three image fields).
(§5) The effects of the selected compounds on endothelial tube formation was assessed after over treatment of LEC and HUVEC cultures at a compound concentration of 1 μM in 0.1% DMSO. The length of the tube-like structures was measured using the IPLab software.

[4] = test system: blood vessel development and/or lymphangiogenesis in Xenopus embryos; assay type: in vivo, Xenopus laevis; conditions: for lymph vessel development phenotype (vegfr3 expression, in words): 20 μM from stage 31, fixed at stage 42; for ALH phenotype: anterior lymph heart; for ALS phenotype: anterior lymph sac; for PLV phenotype: posterior lymph vessels
Summary of the method: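 Albino Xenopus embryos treated at 20 μM final (from 10-mM DMSO stocks) in screening medium, 7 per well, from stage 31 (37 hpf) to stage 35/36 (50 hpf) or 42 (80 hpf). Fixed in 4% paraformaldehyde and scored by whole-mount in situ hybridization: vasculogenesis and intersomitic vein angiogenesis at stage 35/36, lymph vessel development at stage 42.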

Xenopus embryos = conditions: for Lethality: — = no stage of lethality given; for Onset (NF): onset of edema; for scored in the phenotypic Xenopus screens: known antiangiogenic compounds; for Type of edema Periocular: * = causing bulging eyes, # = bilateral, causing narrow-set eyes; for Type of edema Ventral: ‡ = edemas also detected in the gut
Summary of the method: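 Stage 31 (37 hpf) Xenopus embryos, five per well, exposed to 20 µM compound in 1% DMSO at 23 °C for 4 days. Edema, lethality and other external phenotypes were scored daily by two investigators at stages 39, 41, 45 and 47.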

HUVEC [5] = assay: HUVEC tube formation assay; assay type: cell-based, human; conditions: for activity at 1 µM: Homo sapiens, HUVEC
Experimental: as §1, §4, §5

[6] = test system: transgenic zebrafish expressing a fluorescent vascular reporter gene; conditions: Tran et al., 2007, cited from earlier work; for penetration of embryos: highly hydrophilic compounds
[7] = intersomitic vessels, Xenopus embryos
[8] = posterior cardinal vein, Xenopus embryos
[9] = vitelline vein network, Xenopus embryos
[10] = compounds causing edema, 20 μM, 1% DMSO, treatment from stage 31, scored to stage 47
[11] = 20 μM, 1% DMSO, treatment from stage 31, Nieuwkoop & Faber stage
[12] = 10 μM in 0.1% DMSO, 48 hours, read-out: LEC proliferation
[13] = 10 μM in 0.1% DMSO, 48 hours, read-out: HUVEC proliferation
[14] = 1 μM in 0.1% DMSO, overnight, read-out: LEC tube formation
[15] = 1 μM in 0.1% DMSO, overnight, read-out: HUVEC tube formation
[16] = 1 μM in 0.1% DMSO, read-out: LEC tube formation (tube length)
[17] = 1 μM in 0.1% DMSO, read-out: HUVEC tube formation (tube length)

Structure (SMILES) | ISV phenotype [4, 7] | PCV phenotype [4, 8] | VVN phenotype [4, 9] | Lethality (NF) (Xenopus embryos; [10]) | Type of edema Pericordial (Xenopus embryos; embryonic stage) | Lethality (Xenopus embryos; embryonic stage) | Onset (NF) (Xenopus embryos; [11]) | activity at 10 µM (LEC [1]; [12]) | activity at 10 µM (HUVEC [2]; [13]) | effect on LEC tube formation (in words) (LEC [3]; 1 μM in 0.1% DMSO) | activity at 1 µM (LEC [3]; [14]) | activity at 1 µM (HUVEC [5]; [15]) | ALH phenotype ([4]; Xenopus embryos) | ALS phenotype ([4]; Xenopus embryos) | PLV phenotype ([4]; Xenopus embryos) | Type of edema Periocular (Xenopus embryos; embryonic stage) | Type of edema Ventral (Xenopus embryos; embryonic stage) | other results
COc1cc([C@@H]2c3cc4c(cc3[C@H](O)[C@H]3COC(=O)[C@H]23)OCO4)cc(OC)c1OC [Podophyllotoxin] | impaired | hypoplastic | hypoplastic | 41/42 | 39/40 | 41/42 | 39/40 |  |  |  |  |  |  |  |  |  |  | activity at 10 µM (LEC [1]; read-out: LEC proliferation, 10 μM in 0.1% DMSO, 48 hours): 65 to 82%; activity at 10 µM (HUVEC [2]; read-out: HUVEC proliferation, 10 μM in 0.1% DMSO, 48 hours): 65 to 82%; activity at 1 µM (LEC [3]; read-out: LEC tube formation): < 50%; activity at 1 µM (LEC [3]; read-out: LEC tube formation (tube length)): < 35%; activity at 1 µM (HUVEC [5]; read-out: HUVEC tube formation): < 50%; activity at 1 µM (HUVEC [5]; read-out: HUVEC tube formation (tube length)): < 35%
Cc1cc(C)c(C=C2C(=O)Nc3ccccc32)[nH]1 [SU 5416, 1,3-Dihydro-3-[(3,5-dimethyl-1H-pyrrol-2-yl)methylene]-2H-indol-2-one] |  |  |  |  |  |  |  | 85 to 115% | 85 to 115% | preferentially blocked tube formation in LEC rather than HUVEC cultures | 50 to 85% | 85 to 115% |  |  |  |  |  | ISV phenotype ([4]; in vivo): impaired; PCV phenotype ([4]; in vivo): normal; VVN phenotype ([4]; in vivo): hypoplastic; blood vessel development phenotype (apj expression, in words) ([4]; in vivo): block ISV outgrowth; edema or other phenotype in compound-treated Xenopus embryos/tadpoles (in words) (Xenopus embryos; 20 μM, 1% DMSO, treatment from stage 31): causing lethality; scored in the phenotypic Xenopus screens (Xenopus embryos; 20 μM): active; Lethality (NF) (Xenopus embryos; compounds causing lethality, 20 μM, 1% DMSO, treatment from stage 31, Nieuwkoop & Faber stage): 37/38
CC(C)COC(=O)OCN1C(=O)CN(CCN2CC(=O)N(COC(=O)OCC(C)C)C(=O)C2)CC1=O [Sobuzoxane, 4,4′-(1,2-Ethanediyl)bis(1-isobutoxycarbonyloxymethyl-2,6-piperazinedione)] |  |  |  | 47 NF |  | 47 embryonic stages according to Nieuwkoop and Faber (NF) | 41/42 | 115 to 150% | 115 to 150% |  | 85 to 115% | 85 to 115% | dysplastic | dysplastic | hypoplastic | 45* embryonic stages according to Nieuwkoop and Faber (NF) | 45 embryonic stages according to Nieuwkoop and Faber (NF) | LEC proliferation (LEC [1]; 10 μM in 0.1% DMSO, 48 hours): + (+, moderate promotion (>115-150% of control).); HUVEC proliferation (HUVEC [2]; 10 μM in 0.1% DMSO, 48 hours): + (+, moderate promotion (>115-150% of control).); activity at 1 µM (LEC [3]; [16]): 85 to 115%; lymph vessel development phenotype (vegfr3 expression, in words) [4]: discontinuatous, dysplastic lymphatic vessels; Blood vessel phenotype ([4]; Xenopus embryos): normal; Type of edema Proctodeal (Xenopus embryos; embryonic stage): 45 embryonic stages according to Nieuwkoop and Faber (NF); Type of edema Pronephric (Xenopus embryos; embryonic stage): 41/42; activity at 1 µM (HUVEC [5]; [17]): 85 to 115%
COC(=O)C1=C(C)NC(C)=C(C(=O)OCCN(C)Cc2ccccc2)C1c1cccc([N+](=O)[O-])c1 (stereo not drawn) [Nicardipine hydrochloride] |  |  |  | 45 NF | 41/42 | 45 embryonic stages according to Nieuwkoop and Faber (NF) | 41/42 | 85 to 115% | 85 to 115% |  | 85 to 115% | 85 to 115% | dysplastic | dysplastic | hypoplastic |  | 41/42 | activity at 1 µM (LEC [3]; [16]): 85 to 115%; lymph vessel development phenotype (vegfr3 expression, in words) ([4]; hydrochloride): inhibiting preferentially lymphatic vascular development; also recorded: discontinuatous, dysplastic lymphatic vessels; Blood vessel phenotype ([4]; Xenopus embryos): normal; activity at 1 µM (HUVEC [5]; [17]): 85 to 115%
CN(C)c1ccc(O)c2c1C[C@H]1C[C@H]3[C@H](N(C)C)C(O)=C(C(N)=O)C(=O)[C@@]3(O)C(O)=C1C2=O [minocycline hydrochloride] |  |  |  |  |  |  |  |  |  |  |  |  |  |  |  |  |  | penetration of embryos [6]: poorly penetrate embryos
O=C1CCC(N2C(=O)c3ccccc3C2=O)C(=O)N1 (stereo not drawn) [thalidomide] |  |  |  |  |  |  |  |  |  |  |  |  |  |  |  |  |  | penetration of embryos [6]: poorly penetrate embryos
COc1cc2ncnc(Nc3cccc(Cl)c3)c2cc1OC [Tyrphostin AG 1478, N-(3-Chlorophenyl)-6,7-dimethoxy-4-quinazolinamine] |  |  |  | 46 NF |  | 46 embryonic stages according to Nieuwkoop and Faber (NF) |  |  |  |  |  |  |  |  |  | 45 embryonic stages according to Nieuwkoop and Faber (NF) | 45 embryonic stages according to Nieuwkoop and Faber (NF) | recovery as antiangiogenic compound in the transgenic zebrafish screen [6]: recovery; scored in the phenotypic Xenopus screens (Xenopus embryos; 20 μM): active; Cardiac phenotype (Xenopus embryos; embryonic stage, ¶ = the heart chambers were enlarged): 45¶ embryonic stages according to Nieuwkoop and Faber (NF)
N#CC(=Cc1ccc(O)c(O)c1)C(=O)Nc1ccccc1 [Tyrphostin AG 494, N-Phenyl-3,4-dihydroxybenzylidenecyanoacetamide] | impaired | hypoplastic | hypoplastic | 40 NF | 39 embryonic stages according to Nieuwkoop and Faber (NF) | 40 embryonic stages according to Nieuwkoop and Faber (NF) |  | 85 to 115% | 85 to 115% | preferentially blocked tube formation in LEC rather than HUVEC cultures | 50 to 85% | 85 to 115% |  |  |  |  |  | 
Nc1ccc2c3c(cccc13)C(=O)NC2=O [4-Amino-1,8-naphthalimide] | normal | normal | hyperplastic |  | 41/42 |  | 41/42 |  |  | preferentially blocked tube formation in LEC rather than HUVEC cultures |  |  | stunted | impaired | hypoplastic | 41/42* |  | LEC proliferation (LEC [1]; 10 μM in 0.1% DMSO, 48 hours): O (O, inactive or marginal effects (85-115% of control);); HUVEC proliferation (HUVEC [2]; 10 μM in 0.1% DMSO, 48 hours): + (+, moderate promotion (>115-150% of control).); LEC tube formation (LEC [3]; 1 μM in 0.1% DMSO, overnight): − (−, moderate inhibition (50-85% of control):); blood vessel development phenotype (apj expression, in words) ([4]; 20 μM from stage 31, fixed at stage 35/36): hyperplasia of the VVN, while ISV angiogenesis occurred unaffected; lymph vessel development phenotype (vegfr3 expression, in words) [4]: lymphangiogenesis was largely suppressed; Embr. phen. (Xenopus embryos; embryonic phenotype in the primary screen): EDE; Type of edema Proctodeal (Xenopus embryos; embryonic stage): 47 embryonic stages according to Nieuwkoop and Faber (NF); HUVEC tube formation (HUVEC [5]; 1 μM in 0.1% DMSO, overnight): O (O, inactive or marginal effects (85-115% of control);)
